Test results: patent US20250230193A1, “CYCLIC COMPOUND HAVING SELECTIVE KRAS INHIBITORY EFFECT ON HRAS AND NRAS” (CHUGAI SEIYAKU KABUSHIKI KAISHA, priority 2022, published 2025)
Where a SMILES comes first, the peptide text is derived from it. Bridges are numbered along the chain shown (N, C = ends). [ ]: non-standard residue; d: D form. The star is where a group is joined. hPhe(3,5-F2-4-CF3) = N[C@@H](CCc1cc(F)c(C(F)(F)F)c(F)c1)C(=O)O; NPrPhe(4-CF3) = CCCN[C@@H](Cc1ccc(C(F)(F)F)cc1)C(=O)O; NMeGly(cPent) = CN[C@H](C(=O)O)C1CCCC1; NMeD = CN[C@@H](CC(=O)O)C(=O)O; NMeL = CN[C@@H](CC(C)C)C(=O)O; αMeS = C[C@](N)(CO)C(=O)O; Morpholide = C1CN(*)CCO1; Aze = O=C(O)[C@@H]1CCN1; Sar = CNCC(=O)O; Allyl = C=CC*

Legend:
[1] = target: GDP-bound NRAS wild-type protein (Homo sapiens, UniProt P01111); assay: Binding to NRAS by surface plasmon resonance (SPR), Single Cycle Kinetics; conditions: SPR; for NRAS/KRAS (ratio of KD value with respect to NRAS to KD value with respect to KRAS) / NRAS/KRAS (ratio of KD value for NRAS to KD value for KRAS): GDP-bound NRAS wild-type vs GDP-bound KRAS wild-type
[2] = target: GDP-bound HRAS wild-type protein (Homo sapiens, UniProt P01112); assay: Binding to HRAS by surface plasmon resonance (SPR), Single Cycle Kinetics; conditions: SPR; for HRAS/KRAS (ratio of KD value with respect to HRAS to KD value with respect to KRAS) / HRAS/KRAS (ratio of KD value for HRAS to KD value for KRAS): GDP-bound HRAS wild-type vs GDP-bound KRAS wild-type
Chain of GDP-bound HRAS wild-type protein (P01112 whole entry): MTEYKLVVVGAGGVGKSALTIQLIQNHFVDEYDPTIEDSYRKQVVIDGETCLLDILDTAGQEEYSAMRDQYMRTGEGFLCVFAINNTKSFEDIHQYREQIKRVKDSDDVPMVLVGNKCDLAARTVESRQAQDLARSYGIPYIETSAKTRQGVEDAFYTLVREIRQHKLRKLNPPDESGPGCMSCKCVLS

Chain of GDP-bound NRAS wild-type protein (P01111 whole entry): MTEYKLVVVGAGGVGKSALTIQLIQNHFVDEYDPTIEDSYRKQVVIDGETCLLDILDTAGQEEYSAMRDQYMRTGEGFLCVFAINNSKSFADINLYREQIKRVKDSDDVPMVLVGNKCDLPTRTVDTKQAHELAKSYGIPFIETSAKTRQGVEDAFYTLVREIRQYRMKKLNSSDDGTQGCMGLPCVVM

CCO[C@@H]1C[C@H]2C(=O)N(C)C3(CCC3)C(=O)N(C)[C@@H](C(CC)CC)C(=O)N(C)[C@H](C(=O)N(C)C)CC(=O)N(C)[C@@H](COC)C(=O)N[C@@H]([C@@H](C)CC)C(=O)N(C3CC3)CC(=O)N(C)[C@H]3C/C=C\CCN(C3=O)[C@@H](CC3CCCCC3)C(=O)N(C)CC(=O)N[C@@H](CCc3ccc(C(F)(F)F)c(OC)c3)C(=O)N2C1 [PP2339]
NRAS/KRAS (ratio of KD value with respect to NRAS to KD value with respect to KRAS) [1]: A (a compound having 10 or more and less than 20 is denoted as A) | HRAS/KRAS (ratio of KD value with respect to HRAS to KD value with respect to KRAS) [2]: A (a compound having 10 or more and less than 20 is denoted as A)

CCO[C@@H]1C[C@H]2C(=O)NC3(CC(C)(C)C3)C(=O)N(C)[C@@H](C3CCCC3)C(=O)N(C)[C@H](C(=O)N(C)C)CC(=O)N(C)[C@@H](CC3CC3)C(=O)N[C@@H]([C@@H](C)CC)C(=O)N(C)CC(=O)N(C)[C@H]3C/C=C\CCN(C3=O)[C@@H](Cc3ccc(C(F)(F)F)cc3)C(=O)N(C)CC(=O)N[C@@H](CCc3cc(F)c(Cl)c(F)c3)C(=O)N2C1 [PP1759]
NRAS/KRAS (ratio of KD value for NRAS to KD value for KRAS) ([1]; KD ratio): A (a compound having 10 or more and less than 20 is denoted as A) | HRAS/KRAS (ratio of KD value for HRAS to KD value for KRAS) ([2]; KD ratio): A (a compound having 10 or more and less than 20 is denoted as A)

CCO[C@@H]1C[C@H]2C(=O)NC3(CCC3)C(=O)N(C)[C@@H](C3CCCC3)C(=O)N(C)[C@H](C(=O)N(C)C)CC(=O)N(C)[C@@H](COC)C(=O)N[C@@H]([C@@H](C)CC)C(=O)N(C)CC(=O)N(C)[C@H]3CCCCCN(C3=O)[C@@H](Cc3ccc(C(F)(F)F)cc3)C(=O)N(C)CC(=O)N[C@@H](CCc3cc(F)c(C(F)(F)F)c(F)c3)C(=O)N2C1 [PP0674]
NRAS/KRAS (ratio of KD value with respect to GDP-bound NRAS wild-type protein to KD value with respect to KRAS) [1]: B (a compound having 3 or more and less than 10 is denoted as B) | HRAS/KRAS (ratio of KD value with respect to GDP-bound HRAS wild-type protein to KD value with respect to KRAS) [2]: B (a compound having 3 or more and less than 10 is denoted as B)

C#CCN1CC(=O)N(C)[C@H]2C/C=C\CCN(C2=O)[C@@H](Cc2ccc(C)cc2)C(=O)N(C)CC(=O)N[C@@H](CCc2cc(F)c(C(F)(F)F)c(F)c2)C(=O)N2C[C@H](OCC)C[C@H]2C(=O)NC2(CC(C)(C)C2)C(=O)N(C)[C@@H](C2CCCC2)C(=O)N(C)[C@H](C(=O)N(C)C)CC(=O)N(C)[C@@H](CCC)C(=O)N[C@@H]([C@@H](C)CC)C1=O [PP2095]
NRAS/KRAS (ratio of KD value with respect to NRAS to KD value with respect to KRAS) [1]: A (a compound having 10 or more and less than 20 is denoted as A) | HRAS/KRAS (ratio of KD value with respect to HRAS to KD value with respect to KRAS) [2]: A (a compound having 10 or more and less than 20 is denoted as A)

CCO[C@@H]1C[C@H]2C(=O)NC3(CC(F)(F)C3)C(=O)N(C)[C@@H](C3CCCC3)C(=O)N(C)[C@H](C(=O)N(C)CC)CC(=O)N(C)[C@@H](CC3CC3)C(=O)N[C@@H]([C@@H](C)CC)C(=O)N(C)CC(=O)N(C)[C@H]3C/C=C\CCN(C3=O)[C@@H](Cc3ccc(C(F)(F)F)cc3)C(=O)N(C)CC(=O)N[C@@H](CCc3cc(F)c(C(F)(F)F)c(F)c3)C(=O)N2C1 [PP1738]
NRAS/KRAS (ratio of KD value for NRAS to KD value for KRAS) ([1]; KD ratio): AA (a compound having 20 or more is denoted as AA) | HRAS/KRAS (ratio of KD value for HRAS to KD value for KRAS) ([2]; KD ratio): A (a compound having 10 or more and less than 20 is denoted as A)

CCO[C@@H]1C[C@H]2C(=O)NC3(CCCC3)C(=O)N(C)[C@@H](C3CCCC3)C(=O)N(C)[C@H](C(=O)N(C)C)CC(=O)N(C)[C@@H](C)C(=O)N[C@@H]([C@@H](C)CC)C(=O)N(C)CC(=O)N(C)[C@H]3C/C=C\CCN(C3=O)[C@@H](Cc3ccc(C(F)(F)F)cc3)C(=O)N(C)CC(=O)N[C@@H](CCc3cc(F)c(C(F)(F)F)c(F)c3)C(=O)N2C1 [PP1104]
NRAS/KRAS (ratio of KD value with respect to NRAS to KD value with respect to KRAS) ([1]; KD ratio): A (a compound having 10 or more and less than 20 is denoted as A) | HRAS/KRAS (ratio of KD value with respect to HRAS to KD value with respect to KRAS) ([2]; KD ratio): A (a compound having 10 or more and less than 20 is denoted as A)

C=CCOC[C@]1(C)NC(=O)[C@@H]2CCCN2C(=O)[C@H](CCc2cc(F)c(C(F)(F)F)c(F)c2)NC(=O)CN(C)C(=O)[C@H](Cc2ccc(C(F)(F)F)cc2)N(CCC)C(=O)[C@@H]2CCN2C(=O)CN(C)C(=O)[C@H]([C@@H](C)CC)NC(=O)[C@H](CC(C)C)N(C)C(=O)C[C@@H](C(=O)N2CCOCC2)N(C)C(=O)[C@H](C2CCCC2)N(C)C1=O [PP0799] ([NMeL]I[Sar][Aze][NPrPhe(4-CF3)][Sar][hPhe(3,5-F2-4-CF3)]P[αMeS](Allyl)[NMeGly(cPent)][NMeD]-Morpholide; lactam N-11)
NRAS/KRAS (ratio of KD value with respect to GDP-bound NRAS wild-type protein to KD value with respect to KRAS) [1]: C (A compound having a KD ratio of 0.1 or more and less than 3 is denoted as C) | HRAS/KRAS (ratio of KD value with respect to GDP-bound HRAS wild-type protein to KD value with respect to KRAS) [2]: B (a compound having 3 or more and less than 10 is denoted as B)
